Reference: article PMC11952846, “The sterol-regulating human ARV1 binds cholesterol and phospholipids through its conserved ARV1 homology domain” (The Journal of Biological Chemistry, 2025)
Changes are numbered by the printed parent chain. “Also recorded” adds a separate entry of the source.

Assays:
Assay in all cases: HTRF phospholipid lipid-binding assay, mutant
[1] = target: T1, 6XHIS-N98 C34/37A (Homo sapiens, UniProt Q9H2C2, C34A/C37A); parameters: key: NC, no change; settings: biotinylated lipid; NC = no change vs N98
T1 construct: made in house; host or cells: E. coli BL21
T1 sequence (Q9H2C2 1-98 C34A/C37A): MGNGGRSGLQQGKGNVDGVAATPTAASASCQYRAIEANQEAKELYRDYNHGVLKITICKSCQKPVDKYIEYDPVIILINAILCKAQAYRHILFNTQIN
Source text: (§1) An HTRF assay was developed for 6XHIS-ARV1-N98-lipid binding. HTRF measures analyte interactions through fluorescence resonance energy transfer technology and time-resolved measurements ([53]). The interaction between two molecules can be quantified through binding each individual molecule involved with a fluorescent label and then analyzing the transfer of energy between the initial donor fluorophore and the secondary acceptor fluorophore. Following excitation of the first fluorophore, transfer of energy can only occur if the molecules bound with the fluorescent tags are within proximity to each other.
(§2) Assays were plated in 384-well flat bottom microplates (Greiner Bio, catalog #784075-25). Proteins were diluted using binding buffer (20 mM Hepes buffer, pH 7.2, containing 0.1% BSA, and 0.01% Tween20) to a stock concentration of 0.75 μM, and biotinylated phospholipids were dispensed, dried under nitrogen gas, and resuspended in binding buffer to a stock concentration of 50 μM. The lipid stock solution was diluted by 1:2 for a series of 12 serial dilutions. For the assay, in sequential order, 6 μl of binding buffer was loaded into the plate in triplicate for each dilution of phospholipid. To this, 2 μl of 0.75 μM 6XHIS-ARV1-N98 was added, followed by 2 μl of biotinylated phospholipid. Immediately following each addition loaded into the plate, the plate was centrifuged for 1 min at 1000 rpm to bring the contents to the bottom of the well. Next, detection antibodies were mixed with detection buffer (20 mM Hepes buffer, pH 8.5, containing 0.01% BSA and 200 mM KF). Antibodies were a MAb anti-6XHIS Europium kryptate-conjugated D1 fluorescent antibody (Cisbio, #61HISKLA) and Streptavidin-conjugated d2 fluorescent antibody (Cisbio, #610SADLA). For each 1000 μl of detection buffer, 5 μl of each antibody was added just prior to loading 10 μl into each well. The plate was again centrifuged for 1 min at 1000 rpm and stored in a sealed container overnight, in the dark. Plates were read on a PerkinElmer EnVision Xcite Multilabel plate reader.
(§3) Curves were logarithmically transformed and normalized to a common scale before being fit with a nonlinear regression of the agonist against the normalized response. This generated half maximal effective concentration values (EC50; M) that could then be compared between different lipids. In the context of our study, EC50 values were defined as a measure of protein sensitivity to binding to a particular lipid within a dose response curve. For phospholipid competition analysis, IC50; M values were determined using nonlinear regression of the inhibitor against normalized response.

[2] = target: T2, 6XHIS-N98 C58/61A (Homo sapiens, UniProt Q9H2C2, C58A/C61A); parameters: key: NC, no change; settings: biotinylated lipid; NC = no change vs N98
T2 construct: made in house; host or cells: E. coli BL21
T2 sequence (Q9H2C2 1-98 C58A/C61A): T1 sequence (Q9H2C2 1-98 C34A/C37A) with A34C, A37C, C58A, C61A
Source text: as §1, §2, §3

[3] = target: T3, 6XHIS-N98 D72A (Homo sapiens, UniProt Q9H2C2, D72A); parameters: key: NC, no change; settings: biotinylated lipid; NC = no change vs N98
T3 construct: made in house; host or cells: E. coli BL21
T3 sequence (Q9H2C2 1-98 D72A): T1 sequence (Q9H2C2 1-98 C34A/C37A) with A34C, A37C, D72A
Source text: as §1, §2, §3

[4] = target: T4, 6XHIS-N98 K54/K59A (Homo sapiens, UniProt Q9H2C2, K54A/K59A); parameters: key: NC, no change; settings: biotinylated lipid; NC = no change vs N98
T4 construct: made in house; host or cells: E. coli BL21
T4 sequence (Q9H2C2 1-98 K54A/K59A): T1 sequence (Q9H2C2 1-98 C34A/C37A) with A34C, A37C, K54A, K59A
Source text: as §1, §2, §3

[5] = target: T5, 6XHIS-N98 N94A (Homo sapiens, UniProt Q9H2C2, N94A); parameters: key: NC, no change; settings: biotinylated lipid; NC = no change vs N98
T5 construct: made in house; host or cells: E. coli BL21
T5 sequence (Q9H2C2 1-98 N94A): T1 sequence (Q9H2C2 1-98 C34A/C37A) with A34C, A37C, N94A
Source text: as §1, §2, §3

[6] = target: T6, 6XHIS-N98 N94Q (Homo sapiens, UniProt Q9H2C2, N94Q); parameters: key: NC, no change; settings: biotinylated lipid; NC = no change vs N98
T6 construct: made in house; host or cells: E. coli BL21
T6 sequence (Q9H2C2 1-98 N94Q): T1 sequence (Q9H2C2 1-98 C34A/C37A) with A34C, A37C, N94Q
Source text: as §1, §2, §3

[7] = target: T7, 6XHIS-N98 E70A (Homo sapiens, UniProt Q9H2C2, E70A); parameters: key to Bio-PL, EC50, M ± S.D.: NC, no change; settings: biotinylated lipid, NC = no change vs N98
T7 construct: made in house; host or cells: E. coli BL21
T7 sequence (Q9H2C2 1-98 E70A): T1 sequence (Q9H2C2 1-98 C34A/C37A) with A34C, A37C, E70A
Source text: as §1, §2, §3

Compound | Bio-PL, EC50, M ± S.D. [1] | Bio-PL, EC50, M ± S.D. [2] | Bio-PL, EC50, M ± S.D. [3] | Bio-PL, EC50, M ± S.D. [4] | Bio-PL, EC50, M ± S.D. [5] | Bio-PL, EC50, M ± S.D. [6] | Bio-PL, EC50, M ± S.D. [7] | EC50 ([7]; read-out: Bio-PL, EC50, M ± S.D.) [nM]
CCCCC/C=C\C/C=C\CCCCCCCC(=O)OC[C@H](COP(=O)(O)OCC(O)COP(=O)(O)OC[C@@H](COC(=O)CCCCCCC/C=C\C/C=C\CCCCC)OC(=O)CCCCCCC/C=C\C/C=C\CCCCC)OC(=O)CCCCCCC/C=C\C/C=C\CCCCC (some centres unmarked) [CL, cardiolipin] | NC | NC | NC | NC | NC | NC | NC | –
CCCCCCCCCCCCCCCC(=O)OC[C@H](COP(=O)(O)O)OC(=O)CCCCCCCCCCCCCCC [PA, phosphatidic acid] | increased | reduced binding | reduced binding | reduced binding | reduced binding | reduced binding | reduced binding | –
CCCCCCCC/C=C\CCCCCCCC(=O)OC[C@H](COP(=O)(O)OCC(O)CO)OC(=O)CCCCCCC/C=C\CCCCCCCC (some centres unmarked) [PG, phosphatidylglycerol] | reduced | NC | NC | reduced | reduced | NC | NC | –
CCCCCCCCCCCCCCCCCC(=O)OC[C@H](COP(=O)(O)OC[C@H](N)C(=O)O)OC(=O)CCCCCCCCCCCCCCCCC [PS, phosphatidylserine] | NC | NC | NC | NC | NC | NC | NC | –
CCCCCC(=O)O[C@H](COC(=O)CCCCCNC(=O)CCCC[C@@H]1SC[C@@H]2NC(=O)N[C@@H]21)COP(=O)(O)O[C@H]1[C@H](O)[C@@H](O)[C@H](OP(=O)(O)O)[C@@H](O)[C@H]1O [reference compound] | – | weakened | weakened | – | weakened; also recorded: reduction | weakened | weakened | –
phosphatidylcholine [PC] | NC | NC | NC | NC | NC | NC | NC | –
phosphatidylethanolamine [PE] | NC | NC | NC | NC | NC | NC | – | 190
